The record followed here is patent publication US11903983B2, “Composition comprising new Lactobacillus salivarius strains and method for the prevention and treatment of otitis and upper respiratory infections” (priority 2018, dated 2024).

Converted amounts (≈) assume the structure as drawn.

For one experiment, the system named is L. salivarius PS7. The experiment can be described thus: Antibiogram: MIC by VetMIC microdilution and E-test. It counts as cell-based, Lactobacillus salivarius.
Settings: not given
The method, then:
The suspension was further adjusted to 3×10^5 CFU/ml with LSM, and 100 μl were inoculated to wells of microtiter VetMIC plates for lactic acid bacteria (National Veterinary Institute of Sweden, Uppsala, Sweden). The plates were incubated at 37° C. for 48 h and the MIC was defined as the lowest concentration at which no growth was observed.
Parallel, minimum inhibitory concentrations (MICs) were also determined by the E-test (AB BIODISK, Solna, Sweden) following the instructions of the manufacturer. Briefly, after overnight incubation, agar cultures were checked for purity. For inoculums preparation, individual colonies were suspended in a sterile glass culture tube containing 5 ml sterile saline (0.85% NaCl solution) until a density corresponding to a McFarland (McF) standard of 0.5 was obtained. A sterile cotton swab was dipped into the standardized inoculum and used to inoculate an agar plate. Inoculated plates were allowed to dry for approximately 15 min before application of the E-test strips with preformed antimicrobial gradients. […] For bacteriostatic agents (e.g., tetracycline, erythromycin and clindamycin), the MIC was read at the point where growth was inhibited by 80% (i.e., the first point of significant inhibition as judged by the naked eye).
Results from the different antibiotic susceptibility tests were interpreted according to the cut-off levels proposed by the European Food Safety Authority (EFSA, 2012).
On the technique in general: Dilution methods test growth across graded concentrations, often in twofold steps.
Turning to `CN[C@H](CC(C)C)C(=O)N[C@H]1C(=O)N[C@@H](CC(N)=O)C(=O)N[C@H]2C(=O)N[C@H]3C(=O)N[C@H](C(=O)N[C@H](C(=O)O)c4cc(O)cc(O)c4-c4cc3ccc4O)[C@H](O)c3ccc(c(Cl)c3)Oc3cc2cc(c3O[C@@H]2O[C@H](CO)[C@@H](O)[C@H](O)[C@H]2O[C@H]2C[C@](C)(N)[C@H](O)[C@H](C)O2)Oc2ccc(cc2Cl)[C@H]1O` [Vancomycin], the “antibiotic susceptibility of L. salivarius PS7 according to EFSA cut-off levels” value is “intrinsically resistant”.

Staying with this experiment, now noted: Ligilactobacillus salivarius, PS7, read-out: MICs (L. salivarius PS7).
For `CC1(C)S[C@@H]2[C@H](NC(=O)[C@H](N)c3ccccc3)C(=O)N2[C@H]1C(=O)O` [Ampicillin], the MIC worked out at 0.5 µg/mL (≈ 1.43 µM).

Turning to `O=C(N[C@H](CO)[C@H](O)c1ccc([N+](=O)[O-])cc1)C(Cl)Cl` [Chloramphenicol], the MIC was 2 µg/mL (≈ 6.19 µM).

`CCC[C@@H]1C[C@@H](C(=O)N[C@@H]([C@H]2O[C@H](SC)[C@H](O)[C@@H](O)[C@H]2O)[C@H](C)Cl)N(C)C1` [Clindamycin]: the MIC amounted to 0.5 µg/mL (≈ 1.18 µM).

In the case of `CC[C@H]1OC(=O)[C@H](C)[C@@H](O[C@H]2C[C@@](C)(OC)[C@@H](O)[C@H](C)O2)[C@H](C)[C@@H](O[C@@H]2O[C@H](C)C[C@H](N(C)C)[C@H]2O)[C@](C)(O)C[C@@H](C)C(=O)[C@H](C)[C@@H](O)[C@]1(C)O` [Erythromycin], the MIC was found to be 0.12 µg/mL (≈ 0.164 µM).

Consider `NC[C@H]1O[C@H](O[C@H]2[C@H](O)[C@@H](O[C@H]3O[C@H](CO)[C@@H](O)[C@H](N)[C@H]3O)[C@H](N)C[C@@H]2N)[C@H](O)[C@@H](O)[C@@H]1O` [Kanamycin], for which the MIC was found to be 128 µg/mL (≈ 264 µM).

For `CC(=O)NC[C@H]1CN(c2ccc(N3CCOCC3)c(F)c2)C(=O)O1` [Linezolid], the MIC turned out to be 1 µg/mL (≈ 2.96 µM).

For `[H]/N=C(/N)N[C@H]1[C@H](O)[C@@H](O)[C@H](O[C@@H]2O[C@@H](C)[C@](O)(C=O)[C@H]2O[C@@H]2O[C@@H](CO)[C@H](O)[C@@H](O)[C@@H]2NC)[C@@H](N/C(N)=N\[H])[C@@H]1O` [Streptomycin], the MIC is 32 µg/mL (≈ 55 µM).

`CN[C@H](CC(C)C)C(=O)N[C@H]1C(=O)N[C@@H](CC(N)=O)C(=O)N[C@H]2C(=O)N[C@H]3C(=O)N[C@H](C(=O)N[C@H](C(=O)O)c4cc(O)cc(O)c4-c4cc3ccc4O)[C@H](O)c3ccc(c(Cl)c3)Oc3cc2cc(c3O[C@@H]2O[C@H](CO)[C@@H](O)[C@H](O)[C@H]2O[C@H]2C[C@](C)(N)[C@H](O)[C@H](C)O2)Oc2ccc(cc2Cl)[C@H]1O` [Vancomycin]: the MIC is greater than 128 µg/mL.

The experiment is the same for the next values; noted with them: antibiotic against L. salivarius PS7.
As to `CN(C)[C@@H]1C(=O)C(C(N)=O)=C(O)[C@@]2(O)C(=O)C3=C(O)c4c(O)cccc4[C@@](C)(O)[C@H]3C[C@@H]12` [Tetracyclin], the “MICs (L. salivarius PS7)” value amounted to 2 µg/mL.

With Gentamicin, the “MICs (L. salivarius PS7)” value was 0.12 µg/mL.

Consider Penicillin, for which the “MICs (L. salivarius PS7)” value was 0.25 µg/mL.
